Read-outs that look alike come from different tables or passages of the source.
Columns and labels:
[1] = I = 0.15 M NaCl, T = 25 °C; cited from earlier work
[2] = pH‐potentiometric determination of ligand protonation constants; format: physicochemical; conditions: I = 1.00 M NaCl, T = 25 °C
Experimental: The equilibrium study of the PC2AM^nBu ligand has been started by determining the protonation constants in 0.15 M and 1.00 M NaCl ionic strength. (As the stability of the Sc(III) complex was determined in 1.00 M ionic strength, we had to perform the pH‐potentiometric titration of ligands using 1.00 M ionic strengths also.) The results of pH‐potentiometric measurement are shown in Table 1, where the corresponding data for 3,9‐PC2A,^[ [42] ^] PCTA ^[ [46] ^] and PC2AM‐NI ligands determined under identical conditions are also presented. Knowledge of the protonation constants defined by Eqn. 1 and 2 are essential for the calculation of the stability constants of the Sc(III) complexes:
(1) PC2AM^nBu^2−+nH^+⇌Hn(PC2AM^nBu)^−2+n (2) βn=HnPC2AM^nBu^−2+n/PC2AM^nBu^2−H^+^n
The protonation constants of the ligands, as well as the concentrations of the ligand stock solutions, were determined by pH‐potentiometric method using a Metrohm 785 DMP Titrino automatic titrator using a Metrohm 6.00234.100 combined glass electrode. The titrations were carried out in the pH range 1.75–11.80 and the pH electrode was calibrated by a two‐point calibration routine with the use of 0.05 M KH‐phthalate (pH = 4.005) and 0.01 M borax (pH = 9.177 buffers. The samples were stirred at 25 °C (±0.1 °C) and N2 gas bubbled into the system to ensure inert conditions and to eliminate the effect of the presence of CO2. For the calculation of [H^+] from the measured pH values, the method proposed by Irving et al. was applied.^[ [61] ^] For this, a 0.01 M HCl solution was titrated with the standardized NaOH solution in the presence of 0.15 M NaCl ionic strength at 25 °C. The differences between the measured (pHread) and calculated pH (‐log[H^+]) values were used to obtain the equilibrium H^+ concentration from the pHmeas values during the titrations. By fitting the resulting titration curves (pH – V (NaOH) data pairs) with the PSEQUAD program, the protonation constants of the ligands were determined.^[ [47] ^] The titration of the [Sc(PC2AM^nBu)]^+ with NaOH was performed with the same method by applying very similar conditions.

[3] = Fluoride binding of [Sc(PC2AM^nBu)]^+ (ternary complex stability), 19F NMR titration; format: physicochemical; conditions: stability constant of the ternary fluoride complex, 19F NMR, pH = 5.2, I = 0.15 M NaCl, 25 °C
Source text: Sc(III) is a typical “hard” cation, forming very stable complexes with fluoride anion.^[ [51], [52] ^] […] The formation of the ternary [Sc(PC2AM^nBu)(F)] complex can be followed by […], as two sets of signals (Δδ ∼ 20 Hz) indicate a slow exchange regime on the […] time scale (Figure S16). Measuring the intensities of the free and bound fluoride signals, the stability constant (Eqn. 6) of the [Sc(PC2AM^nBu)(F)] complex (Eqn. 5) can be calculated (Table S1).
(5) [Sc(PC2AM^nBu)]^++F^−⇌[Sc(PC2AM^nBu)(F)] (6) KScLF=ScPC2AM^nBuF/[ScPC2AM^nBu^+]F^−
Table S1. Summary of data used for the calculation of the stability constant, log K[Sc(PC2AM^nBu)(F)] by titration of 0.005M [Sc(PC2AM^nBu)]^+ parent complex with different amounts of F^- (0.005 - 0.01 M concentration range) followed by 376.4 MHz ^19F NMR (I = 0.15 M NaCl, c Sc(PC2AM^nBu) = 5 mM, pH=5.20, T= 298 K).

[4] = Time course of Sc(III) complex formation, 45Sc NMR; format: physicochemical; conditions: ‐log[H^+] = 1.28, 25 °C
Experimental: The time course of complex formation of PC2AM^nBu and PCTA ligands with Sc(III) ion was investigated by ^45Sc‐NMR under acidic conditions (cSc = cligand = 10 mM and 9.5 mM, respectively, ‐log[H^+] = 1.28). The decrease of the narrow signal of the free Sc(III) ion was monitored as a function of time. […] The kinetic measurements of formation could be seen in Figures S18 and S19. The complexation for the [Sc(PCTA)] chelate at pH = 1.28 and 25 °C took about 300 minutes to reach the equilibrium, whereas for the [Sc(PC2AM^nBu)]^+ complex it took a bit longer time under these conditions. (In order to confirm that the samples reached the equilibrium, we have repeated the ^45Sc NMR study for both samples after a few days when the signal of the free Sc(III) was absent, and only the signals of the complexes were detected.) The detailed study of formation kinetics was not our aim in this project. One can expect that the reaction follows the well‐known mechanisms of M(III) ‐ macrocyclic APC systems ^[ [54] ^]: formation of a protonated intermediate in fast pre‐equilibrium followed by a slow, base‐catalyzed deprotonation/structural rearrangement as a rate‐determining step. The intermediate is named also as “out‐of‐cage complex.”^[ [55] ^] Our experimental curves are likely in accordance with this mechanism. Fitting the measured data for the free Sc(III) signals by a monoexponential function gives the rate constant k obs = (1.04 ± 0 .05) x 10^−4 s^−1 for the [Sc(PC2AM^nBu)]^+ and k obs = (2.51 ± 0.12) x 10^−4 s^−1 for the [Sc(PCTA)] complex. […] The relatively fast complex formation at the given acidic condition is very encouraging for the Sc(III) labeling experiments.
^45Sc NMR measurements (97 MHz) were performed on a Bruker DRX 400 (9.4 T) spectrometer equipped with a Bruker VT‐1000 thermocontroller and a BB inverse z‐gradient probe (5 mm). The kinetic experiments were performed at 25 °C in aqueous solution, using D2O (10% v/v) as a lock solvent. Typical parameters for 45Sc NMR measurements were used: TD = 32k, p1 = 15.6 µs (90°), d 1 = 0.1 s. The formation reactions of the [Sc(PC2AM^nBu)]^+ and [Sc(PCTA)] complexes were monitored by ^45Sc NMR spectroscopy in two sample types: one containing 10.0 mM PC2AM^nBu and ScCl3 / 9.5 mM […] and ScCl3. In both cases, the total acid concentration corresponded to a pH of 1.28. Obtained monoexponential curves (signal area of free Sc(III) vs. time) were fitted using Scientist software ^[ [62] ^] to determine the formation rate.

| log K 1 ^H [2] | log K 2 ^H [2] | log K 3 ^H [2] | log K 4 ^H [2] | log β 2 ^H [2] | log K ScLF [3] | Structure (SMILES) | log K 1 ^H [1] | log K 2 ^H [1] | log K 3 ^H [1] | log K 4 ^H [1] | log β 2 ^H [1] | half‐life of the complex formation reaction (t 1/2 = ln2 / k obs) [4] [h] |
| --- | --- | --- | --- | --- | --- | --- | --- | --- | --- | --- | --- | --- |
| 9.22(6) | 7.30(8) | 4.09 (9) | 1.42(8) | 16.52 | – | O=C(O)CN1CCN(CC(=O)O)Cc2cccc(n2)CN(CC(=O)O)CC1 [PCTA, reference compound] | 9.97 | 6.73 | 3.22 | 1.40 | 16.70 | – |
| – | – | – | – | – | 2.5(2) | CCCCNC(=O)CN1CCN(CC(=O)[O-])Cc2cccc(n2)CN(CC(=O)[O-])CC1.[Sc+3] [[Sc(PC2AM^nBu)]^+] | – | – | – | – | – | 1.83 |
